Measurements as given in US20070128217A1 (priority 2003, published 2007).

What was measured:
[1] = tested on: control sera (pooled serum of ten healthy LUMC hospital workers; commercial negative donor pooled serum from the Dutch bloodbank); assay type: binding, human; set-up: Binding of Control serum LUMC to linear peptides / Binding of Control serum Blood-bank to linear peptides / Binding of Control serum LUMC to looped peptides / Binding of Control Serum Blood-Bank to Looped peptides / Binding of Control serum LUMC to linear peptides of the protein M of SARS-CoV Urbani / Binding of Control serum Blood-bank to linear peptides of the protein M of SARS-CoV Urbani / Binding of Control serum LUMC to looped peptides of the protein M of SARS-CoV Urbani / Binding of Control Serum Blood-Bank to Looped peptides of the protein M of SARS-CoV Urbani: unit not given here
[2] = tested on: rabbit serum obtained by immunizing a rabbit with the SARS-CoV strain Frankfurt 1; assay type: binding; set-up: Binding of a rabbit serum to linear peptides / Binding of a rabbit serum to looped peptides / Rabbit serum linear peptides / Rabbit serum looped peptides / Binding of a rabbit serum to linear peptides of protein N of SARS-CoV Urbani (Rabbit serum linear peptides) / Binding of a rabbit serum to looped/cyclic peptides of protein N of SARS-CoV Urbani (Rabbit serum looped peptides): unit not given here
[3] = tested on: recombinant human anti-SARS-CoV antibody 03-018; assay type: binding; set-up: Binding of antibody 03-018 to linear peptides of the N protein of SARS-CoV Urbani / Binding of antibody 03-018 to looped/cyclic peptides of the N protein of SARS-CoV Urbani: unit not given here
[4] = tested on: antibodies in sera from SARS patients (sera 1a, 1b, 2, 6, 37, 62, London, SARS-yellow, SARS-green); assay type: binding, human; set-up: Binding of serum 6 to linear peptides of protein X1 of SARS-CoV Urbani / Binding of serum 37 to linear peptides of protein X1 of SARS-CoV Urbani / Binding of serum 6 to looped/cyclic peptide (PEPSCAN-ELISA) / Binding of serum 37 to looped/cyclic peptide (PEPSCAN-ELISA) / Binding of serum 37 to looped/cyclic peptides of protein X1 of SARS-CoV Urbani / Binding of serum 6 to linear peptides of protein X2 / Binding of serum 37 to linear peptides of protein X2 / Binding of serum 37 to looped/cyclic peptides of protein X2 of SARS-CoV Urbani / Binding of serum 6 to linear peptides of protein M of SARS-CoV Urbani / Binding of serum 37 to linear peptides of protein M of SARS-CoV Urbani / Binding of serum 6 to looped/cyclic peptides of protein M of SARS-CoV Urbani / Binding of serum 37 to looped/cyclic peptides of protein M of SARS-CoV Urbani / Binding of serum 6 to linear peptides of protein X3 of SARS-CoV Urbani / Binding of serum 37 to linear peptides of protein X3 of SARS-CoV Urbani / Binding of serum 37 to looped/cyclic peptides of protein X3 of SARS-CoV Urbani / Binding of serum 6 to linear peptides of protein X4 of SARS-CoV Urbani / Binding of serum 37 to linear peptides of protein X4 of SARS-CoV Urbani / Binding of serum 37 to looped/cyclic peptides of protein X4 of SARS-CoV Urbani / Binding of serum 6 to linear peptides of protein X5 of SARS-CoV Urbani / Binding of serum 37 to linear peptides of protein X5 of SARS-CoV Urbani / Binding of serum 37 to looped/cyclic peptides of protein X5 of SARS-CoV Urbani / Binding of serum 6 to linear peptides of protein N of SARS-CoV Urbani / Binding of serum 37 to linear peptides of protein N of SARS-CoV Urbani / Binding of serum 6 to linear peptide (PEPSCAN-ELISA) / Binding of serum 1a to looped/cyclic peptides of protein N of SARS-CoV Urbani / Binding of serum 1b to looped/cyclic peptides of protein N of SARS-CoV Urbani / Binding of serum 2 to looped/cyclic peptides of protein N of SARS-CoV Urbani / Binding of serum 6 to looped/cyclic peptides of protein N of SARS-CoV Urbani / Binding of serum 37 to looped/cyclic peptides of protein N of SARS-CoV Urbani / Binding of serum 62 to looped/cyclic peptides of protein N of SARS-CoV Urbani / Binding of serum London to looped/cyclic peptides of protein N of SARS-CoV Urbani / Binding of serum SARS-green to looped/cyclic peptides of protein N of SARS-CoV Urbani: unit not given here

| Sequence | Binding of a rabbit serum to linear peptides of protein N of SARS-CoV Urbani (Rabbit serum linear peptides) [2] | Binding of a rabbit serum to looped/cyclic peptides of protein N of SARS-CoV Urbani (Rabbit serum looped peptides) [2] | Binding of antibody 03-018 to linear peptides of the N protein of SARS-CoV Urbani [3] | Binding of antibody 03-018 to looped/cyclic peptides of the N protein of SARS-CoV Urbani [3] | Binding of serum 1a to linear peptides of protein N of SARS-CoV Urbani [4] | Binding of serum 1a to looped/cyclic peptides of protein N of SARS-CoV Urbani [4] | Binding of serum 1b to linear peptides of protein N of SARS-CoV Urbani [4] | Binding of serum 1b to looped/cyclic peptides of protein N of SARS-CoV Urbani [4] | Binding of serum 2 to linear peptides of protein N of SARS-CoV Urbani [4] | Binding of serum 2 to looped/cyclic peptides of protein N of SARS-CoV Urbani [4] | Binding of serum 6 to linear peptides of protein N of SARS-CoV Urbani [4] | Binding of serum 6 to looped/cyclic peptides of protein N of SARS-CoV Urbani [4] | Binding of serum 37 to linear peptides of protein N of SARS-CoV Urbani [4] | Binding of serum 37 to looped/cyclic peptides of protein N of SARS-CoV Urbani [4] | Binding of serum 62 to linear peptides of protein N of SARS-CoV Urbani [4] | Binding of serum 62 to looped/cyclic peptides of protein N of SARS-CoV Urbani [4] | Binding of serum London to linear peptides of protein N of SARS-CoV Urbani [4] | Binding of serum London to looped/cyclic peptides of protein N of SARS-CoV Urbani [4] | Binding of serum SARS-green to linear peptides of protein N of SARS-CoV Urbani [4] | Binding of serum SARS-green to looped/cyclic peptides of protein N of SARS-CoV Urbani [4] | further results |
| --- | --- | --- | --- | --- | --- | --- | --- | --- | --- | --- | --- | --- | --- | --- | --- | --- | --- | --- | --- | --- | --- |
| GTRNPNNNAATVLQL | 0.1 | 0.6 | 0.1 | 0.3 | 0.3 | 0.4 | 0.1 | 0.3 | 0.3 | 0.7 | 0.2 | 0.4 | 0.7 | 0.9 | 0.7 | 0.9 | 0.5 | 0.5 | 0.3 | 0.6 | Binding of Control Serum Blood-Bank to Looped peptides [1]: 1.0; Binding of Control serum Blood-bank to linear peptides [1]: 0.8; Binding of Control serum LUMC to linear peptides [1]: 0.8; Binding of Control serum LUMC to looped peptides [1]: 0.8; Binding of serum SARS-yellow to linear peptides of protein N of SARS-CoV Urbani [4]: 0.6; Binding of serum SARS-yellow to looped/cyclic peptides of protein N of SARS-CoV Urbani [4]: 0.5 |
| HGAIKLDDKDPQFKD | 0.1 | 0.3 | 0.1 | 0.2 | 0.2 | 0.2 | 0.1 | 0.1 | 0.2 | 0.2 | 0.1 | 0.1 | 0.8 | 0.5 | 0.7 | 0.3 | 0.6 | 0.3 | 0.4 | 0.3 | Control Serum Blood-Bank Looped peptides [1]: 0.4; Control serum Blood-bank linear peptides [1]: 0.6; Control serum LUMC linear peptides [1]: 0.6; Control serum LUMC looped peptides [1]: 0.4; Binding of serum SARS-yellow to linear peptides of protein N of SARS-CoV Urbani [4]: 0.6; Binding of serum SARS-yellow to looped/cyclic peptides of protein N of SARS-CoV Urbani [4]: 0.3 |
| HGKEELRFPRGQGVP | 0.1 | 0.3 | 0.1 | 0.2 | 0.2 | 0.3 | 0.2 | 0.2 | 0.3 | 0.4 | 0.1 | 0.2 | 0.7 | 0.5 | 0.7 | 0.3 | 0.5 | 0.4 | 0.5 | 0.2 | Binding of Control Serum Blood-Bank to Looped peptides [1]: 0.5; Binding of Control serum Blood-bank to linear peptides [1]: 0.8; Binding of Control serum LUMC to linear peptides [1]: 0.6; Binding of Control serum LUMC to looped peptides [1]: 0.5; Binding of serum SARS-yellow to linear peptides of protein N of SARS-CoV Urbani [4]: 0.7; Binding of serum SARS-yellow to looped/cyclic peptides of protein N of SARS-CoV Urbani [4]: 0.5 |
